# What was measured:
# Assay type in all cases: cell-based, human
# pAKT (S473) = assay: AKT phosphorylation (S473) in TCM- and TEM-gated PBMCs, PhosFlow; settings: H2O2 5 mM, 15 min; TCM vs TEM
# Description: FIG. 7. AKT and IKK mediate FOXO3a phosphorylation and survival in CD4^+ T cell. (A) Regulation of FOXO3a phosphorylation. Purified CD4^+ T Cells were pre-treated for 1 hour with kinase inhibitors (AKT-VI, AKT inhibitor: 10 μM; STO-609, CamKK inhibitor: 5 μg/ml; Wedelolactone, IKK inhibitor: 100 μM and U0126, MEK1/2 inhibitor: 50 μM). pFoxo3a (S253) was assessed. The results are representative of two independent experiments. (B) CD4^+ T cell susceptibility to apoptosis induced upon treatment with specific kinase inhibitors. CD4^+ T cells were cultured in the presence of kinase inhibitors for 24 hrs (U0126:100 μM; STO-609:10 μg/ml; Wedelolactone and AKT-IV as indicated). After 24 h, the proportion of Annexin-V^+, propidium iodide (PI)^+ cells was quantified by flow cytometry. […] Cells were analyzed by Western Blot (WB) using Bim specific antibodies. […] The levels of pAKT were assessed by flow cytometry in TCM- and TEM-gated subsets. The results are represented as the mean fold increase ±SD, calculated as (MFI of stimulated cells/MFI of un-stimulated cells) of five independent experiments. Values of p (determined by two-tailed T-test) are shown. […]
# To assess the importance of AKT and IKK in the survival of memory T cells, we evaluated the expression of the phosphorylated forms of these proteins in TCM and TEM subsets. […]
# TCM = assay: Apoptosis of sorted TCM induced by kinase inhibitors, Annexin-V labeling; settings: 24 h, AKT-IV 1.6 μM, wedelolactone 100 μM, n=2
# Description: (§1) FIG. 8. Susceptibility of TCM and TEM to apoptosis induced by kinase inhibitors. Sorted TCM and TEM were cultured with or without AKT and IKK inhibitors as indicated. After 24 h, the percentage of apoptotic cells was quantified by Annexin-V-FITC labeling. Upper panel depict Results from a representative individual. Histogram plots show the percent of Annexin-V positive cells in TCM and TEM cells following a 24 h exposure to AKT or IKK-inhibitors. The dashed lines correspond to untreated cells while the plain lines correspond to cells treated with kinase-inhibitors. […] The fold increase of apoptosis is calculated as % of apoptotic cells in treated cells divided by the % of apoptotic cells in untreated cells.
# (§2) Induction and quantification of apoptosis. Apoptotic cells were detected using annexin-V labeling according to the manufacturer's protocol (Biosource). The fluorescence signals were measured by flow cytometry using a BD LSRI flow cytometer (BD-Biosciences). Approximately 50,000-gated events were collected for each sample.
# (§3) After 24 h of treatment, the proportion of apoptotic cells was quantified using Annexin-V labeling (FIG. 8, top panel).
# TEM = settings: sorted TEM, 24 h; AKT-IV 1.6 μM, wedelolactone 100 μM; n=2
# Description: as §1, §2, §3
# Bim = Bim expression in CD4+ T cells in response to AKT and IKK inhibitors, Western blot; settings: 24 h, AKT-IV 1.6 μM, wedelolactone 100 μM
# Description: (§4) FIG. 7. AKT and IKK mediate FOXO3a phosphorylation and survival in CD4^+ T cell. (A) Regulation of FOXO3a phosphorylation. Purified CD4^+ T Cells were pre-treated for 1 hour with kinase inhibitors (AKT-VI, AKT inhibitor: 10 μM; STO-609, CamKK inhibitor: 5 μg/ml; Wedelolactone, IKK inhibitor: 100 μM and U0126, MEK1/2 inhibitor: 50 μM). pFoxo3a (S253) was assessed. The results are representative of two independent experiments. (B) CD4^+ T cell susceptibility to apoptosis induced upon treatment with specific kinase inhibitors. CD4^+ T cells were cultured in the presence of kinase inhibitors for 24 hrs (U0126:100 μM; STO-609:10 μg/ml; Wedelolactone and AKT-IV as indicated). After 24 h, the proportion of Annexin-V^+, propidium iodide (PI)^+ cells was quantified by flow cytometry. […] Cells were analyzed by Western Blot (WB) using Bim specific antibodies. […] The levels of pAKT were assessed by flow cytometry in TCM- and TEM-gated subsets. The results are represented as the mean fold increase ±SD, calculated as (MFI of stimulated cells/MFI of un-stimulated cells) of five independent experiments. Values of p (determined by two-tailed T-test) are shown.
# (§5) Western Blotting analysis. […] HRP activity was detected using an enhanced chemiluminescence detection procedure (ECL-plus detection system, Amersham Biosciences). […] Protein expression levels were expressed as a percentage of the highest signals obtained. […]
# pFOXO3a (S253) = assay: FOXO3a phosphorylation (S253) in CD4+ T cells after kinase inhibitors, Western blot; settings: purified CD4+ T cells pre-treated 1 hour; AKT inhibitor 10 μM, Wedelolactone 100 μM
# Description: as §4, §5
# FasL = FasL expression in CD4+ T cells after AKT and IKK inhibitors, Western blot or flow cytometry; settings: data not shown
# CD4+ T cells = assay: Apoptosis of CD4+ T cells cultured with kinase inhibitors, Annexin-V flow cytometry; settings: for proportion of Annexin-V+ cells: CD4+ T cells, 24 hrs with inhibitor; for inhibitor treatment concentration: concentration used to treat sorted TCM and TEM, what the IC50 refers to is not stated
# Description: FIG. 7. AKT and IKK mediate FOXO3a phosphorylation and survival in CD4^+ T cell. (A) Regulation of FOXO3a phosphorylation. Purified CD4^+ T Cells were pre-treated for 1 hour with kinase inhibitors (AKT-VI, AKT inhibitor: 10 μM; STO-609, CamKK inhibitor: 5 μg/ml; Wedelolactone, IKK inhibitor: 100 μM and U0126, MEK1/2 inhibitor: 50 μM). pFoxo3a (S253) was assessed. The results are representative of two independent experiments. (B) CD4^+ T cell susceptibility to apoptosis induced upon treatment with specific kinase inhibitors. CD4^+ T cells were cultured in the presence of kinase inhibitors for 24 hrs (U0126:100 μM; STO-609:10 μg/ml; Wedelolactone and AKT-IV as indicated). After 24 h, the proportion of Annexin-V^+, propidium iodide (PI)^+ cells was quantified by flow cytometry. The results are depicted as a percentage of apoptotic cells within the total population and are representative of two independent experiments. (C) Bim expression levels in response to AKT and IKK inhibitors. CD4^+ T cells were treated with AKT-IV (1.6 μM) or wedelolactone (100 μM) for 24 h. Cells were analyzed by Western Blot (WB) using Bim specific antibodies. (D and E) Regulation of AKT and IKK phosphorylation in 4^+ memory subsets. (D) pIKKαβ (S176/180) protein levels in ex-vivo sorted TCM and TEM. […] (E) PBMCs, from healthy donors, were treated with H2O2 (5 mM) or Ig-cross-linked CD28 (2 Hg/ml) for 15 min at 37° C. and labeled with CD4, CD27, CD45RA and pAKT (S473) specific antibodies. The levels of pAKT were assessed by flow cytometry in TCM- and TEM-gated subsets. The results are represented as the mean fold increase ±SD, calculated as (MFI of stimulated cells/MFI of un-stimulated cells) of five independent experiments. Values of p (determined by two-tailed T-test) are shown.
# as §2
# To confirm the importance of the phosphorylation of FOXO3a in memory T-cell survival, purified CD4^+ T cells were treated with different kinase-inhibitors, and apoptosis was assessed by flow cytometry using Annexin-V labeling. […] Moreover, we observed a significant upregulation of the levels of the pro-apoptotic molecule Bim, known to be a FOXO3a target, in cells treated with AKT or IKK inhibitors (three and eightfold respectively) (FIG. 7C). […] None of the other kinase-inhibitors tested induced apoptosis in CD4^+ T cells (FIG. 7B) even when used at much higher concentrations (data not shown). […]
# [1] = test system: pFOXO3a (S253, S315 and T32); assay: FOXO3a phosphorylation in CD4+ T cells in response to TCR and cytokine engagement, Western blot; settings: 30 min, IL-7 10 ng/ml, IL-2 100 U/ml
# Description: (A) CD4^+ T cells were cultured in the presence of anti-CD3 (2 μg/ml), anti-CD28 (2 μg/ml), anti-CD3+CD28, IL-2 (100 U/ml), IL-7 (10 ng/ml), IFN-γ (50 μg/ml) or PMA (50 ng/ml) for 15 min and analyzed by Western Blot for pFOXO3a (S315 and S253) expression levels. The results are representative of two independent experiments. (B) CD4^+ T cells were cultured in the presence of anti-CD3/anti-CD28, IL-2 (100 U/ml), IL-7 (10 ng/ml) for 30 min and analyzed by Western Blot for pFOXO3a (T32) expression levels.
# Western Blotting analysis. […] Cells were washed twice with PBS and re-suspended in lysis buffer containing 50 mM NaF and 1 mM sodium pyrophosphate. Proteins from total cell extracts (10 μg) were separated on SDS-PAGE and electrotransfered onto PVDF membranes (Roche, Indianapolis, Ind.). Membranes were incubated overnight at 4° C. with specific antibodies as described in the figure legends. Detection of the immune complexes was performed using horseradish peroxidase (HRP)-conjugated goat anti-mouse (1:2500) or goat anti-rabbit IgG antibodies (1:3000). HRP activity was detected using an enhanced chemiluminescence detection procedure (ECL-plus detection system, Amersham Biosciences). Membranes were subsequently stripped and restained with an anti-actin Abs (1:10000). […] Protein expression levels were expressed as a percentage of the highest signals obtained.
# pSTAT5a (Y694) = assay: STAT5a phosphorylation in TCM and TEM in response to IL-2 or IL-7, flow cytometry
# Description: (B, C and D) PBMCs from healthy donors were treated with IL-2 (100 U/ml) or IL-7 (10 ng/ml) for 15 min at 37° C. Cells were then labeled with Abs to CD4, CD27, CCR7, CD45RA and pSTAT5a. (B) Representative example of pSTAT5a expression levels. TCM-gated cells are represented in light grey and TEM-gated cells are represented in black. (C) Mean Fluorescence Intensity (MFI) of pSTAT5a level of expression measured in response to IL-2 or IL-7, in TCM and TEM (n=4). Mean pSTAT5a signal values are represented by black bars. P-values (determined by a two-tailed T-test) are shown (D) Expression level of CD127, CD25 and CD132 in ex-vivo TCM and TEM.
# Flow cytometry analysis of STAT5a and AKT phosphorylation status. PBMCs were resuspended at 20 millions/ml in RPMI and incubated for 30 min in the presence of CCR7-FITC abs (20 μl/million cells) at room temperature. The cells were then washed and re-suspended at a cell concentration of 5 millions per ml in PBS and stimulated for 15 min at 37° C. in the presence of IL-2 (100 U/ml) or IL-7 (10 ng/ml). Following stimulation, the cells were fixed for 10 min at 37 degrees using cytofix buffer (BD Biosciences), pelleted and then permeabilized in PERM-III buffer (BD Biosciences) for 30 min on ice. […]
# The phosphorylated form of STAT5a (Y694) (pSTAT5a) was quantified by flow cytometry.
Molecule,upregulation of Bim levels (Bim),"expression levels of pFOXO3a (S253), fold lower as compared to untreated cells (pFOXO3a (S253))",levels of FasL expression (FasL),proportion of Annexin-V+ cells (CD4+ T cells),further results
OO [H2O2],,,,,induction of pAKT (S473) (pAKT (S473)): higher in TCM than TEM
COc1cc(O)c2c(c1)oc(=O)c1c3cc(O)c(O)cc3oc21 [Wedelolactone],eightfold,4.5 fold,did not change,increased in a dose-dependant fashion,"increase in Annexin-V+ cells relative to untreated cells (TCM): eightfold; increase in Annexin-V+ cells relative to untreated cells (TEM): twofold; inhibitor treatment concentration (CD4+ T cells; Homo sapiens, CD4+ T): 100 µM"
CC[n+]1c(/C=C/N(C)c2ccccc2)n(-c2ccccc2)c2ccc(-c3nc4ccccc4s3)cc21.[I-] [AKT-IV],three,eightfold,did not change,increased in a dose-dependant fashion,inhibitor treatment concentration (CD4+ T cells): 1.6 µM
"IL-7: cytokine purchased from R&D systems (protein, UniProt P13232 26-177, looked up) Interleukin-7: DCDIEGKDGKQYESVLMVSIDQLLDSMKEIGSNCLNNEFNFFKRHICDANKEGMFLFRAARKLRQFLKMNSTGDFDLHLLKVSEGTTILLNCTGQVKGRKPAALGEAQPTKSLEENKSLKEQKKLNDLCFLKRLLQEIKTCWNKILMGTKEH",,,,,"levels of pFOXO3a at T32 [1]: threefold; proportion of cells that up-regulated pSTAT5a, higher in TCM as compared to TEM (pSTAT5a (Y694); IL-7 10 ng/ml, 15 min, p<0.002): 30%±6.5; pSTAT5a response (pSTAT5a (Y694); both TCM and TEM, brief IL-7 treatment): upregulated pSTAT5a"

# — patent publication US20080293070A1, “Markers for Memory T Cells and Uses Thereof” (priority 2005, published 2008)
